Reference: PubChem BioAssay (NCI)
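How tested: cells in 96-well plates exposed to compound for 48 hours at five concentrations. TGI is the concentration that stops growth completely.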

Tests used:
Test in all cases: inhibition of tumour cell growth, NCI panel, 48 h
[1] = test system: SR leukemia
[2] = test system: A549 NSCLC
[3] = test system: SF-268 CNS
[4] = test system: OVCAR-4 ovarian
[5] = test system: UO-31 renal
[6] = test system: SW-620 colon
[7] = test system: UACC-257 melanoma
[8] = test system: U251 CNS
[9] = test system: HOP-62 NSCLC
[10] = test system: MOLT-4 leukemia
[11] = test system: SNB-75 CNS
[12] = test system: SNB-19 CNS
[13] = test system: RPMI-8226 leukemia
[14] = test system: SK-MEL-5 melanoma
[15] = test system: NCI-H522 lung
[16] = test system: LXFL 529 NSCLC
[17] = test system: KM12 colon
[18] = test system: SN12C renal
[19] = test system: HCC-2998 colon
[20] = test system: EKVX NSCLC
[21] = test system: M14 melanoma
[22] = test system: SNB-78 CNS
[23] = test system: OVCAR-5 ovarian
[24] = test system: RXF-631 renal
[25] = test system: OVCAR-8 ovarian
[26] = test system: NCI-H23 lung
[27] = test system: SF-539 CNS
[28] = test system: OVCAR-3 ovarian
[29] = test system: HCT-15 colon
[30] = test system: DMS 273 small cell lung
[31] = test system: CAKI-1 renal
[32] = test system: K-562 leukemia
[33] = test system: TK-10 renal
[34] = test system: M19-MEL melanoma
[35] = test system: COLO 205 colon
[36] = test system: 786-0 renal
[37] = test system: ACHN renal
[38] = test system: HOP-92 NSCLC
[39] = test system: HL-60(TB) leukemia
[40] = test system: IGROV1 ovarian
[41] = test system: SF-295 CNS
[42] = test system: A498 renal
[43] = test system: CCRF-CEM leukemia
[44] = test system: HOP-18 NSCLC
[45] = test system: NCI-H226 lung
[46] = test system: SK-MEL-28 melanoma
[47] = test system: DMS 114 small cell lung
[48] = test system: MALME-3M melanoma
[49] = test system: KM20L2 colon
[50] = test system: NCI-H460 lung
[51] = test system: DLD-1 colon
[52] = test system: XF 498 CNS
[53] = test system: HCT-116 colon
[54] = test system: SK-OV-3 ovarian
[55] = test system: SK-MEL-2 melanoma
[56] = test system: HT29 colon
[57] = test system: LOX IMVI melanoma
[58] = test system: UACC-62 melanoma
[59] = test system: RXF 393 renal

Compound: CN(C(=O)C12C3C4C5C3C1(C(=O)O)C5C42)C(C)(C)C (stereo not drawn)
- TGI [1]: > 100 µM
- TGI [2]: > 100 µM
- TGI [3]: > 100 µM
- TGI [4]: > 100 µM
- TGI [5]: > 100 µM
- TGI [6]: 60.8 µM
- TGI [7]: > 100 µM
- TGI [8]: > 100 µM
- TGI [9]: > 100 µM
- TGI [10]: > 100 µM
- TGI [11]: > 100 µM
- TGI [12]: > 100 µM
- TGI [13]: > 100 µM
- TGI [14]: > 100 µM
- TGI [15]: > 100 µM
- TGI [16]: > 100 µM
- TGI [17]: > 100 µM
- TGI [18]: > 100 µM
- TGI [19]: > 100 µM
- TGI [20]: > 100 µM
- TGI [21]: > 100 µM
- TGI [22]: > 100 µM
- TGI [23]: > 100 µM
- TGI [24]: > 100 µM
- TGI [25]: > 100 µM
- TGI [26]: > 100 µM
- TGI [27]: > 100 µM
- TGI [28]: > 100 µM
- TGI [29]: > 100 µM
- TGI [30]: 33.5 µM
- TGI [31]: > 100 µM
- TGI [32]: > 100 µM
- TGI [33]: > 100 µM
- TGI [34]: > 100 µM
- TGI [35]: 72.3 µM
- TGI [36]: > 100 µM
- TGI [37]: > 100 µM
- TGI [38]: > 100 µM
- TGI [39]: 32 µM
- TGI [40]: > 100 µM
- TGI [41]: > 100 µM
- TGI [42]: > 100 µM
- TGI [43]: > 100 µM
- TGI [44]: > 100 µM
- TGI [45]: > 100 µM
- TGI [46]: > 100 µM
- TGI [47]: 72.6 µM
- TGI [48]: > 100 µM
- TGI [49]: > 100 µM
- TGI [50]: > 100 µM
- TGI [51]: 55.2 µM
- TGI [52]: > 100 µM
- TGI [53]: > 100 µM
- TGI [54]: > 100 µM
- TGI [55]: > 100 µM
- TGI [56]: > 100 µM
- TGI [57]: 65.1 µM
- TGI [58]: > 100 µM

Compound: c1cc(-c2cn3ccsc3n2)ccn1
- TGI [1]: > 100 µM
- TGI [2]: > 100 µM
- TGI [3]: > 100 µM
- TGI [4]: > 100 µM
- TGI [5]: > 100 µM
- TGI [6]: > 62.3 µM
- TGI [7]: > 100 µM
- TGI [8]: > 100 µM
- TGI [9]: > 100 µM
- TGI [10]: > 100 µM
- TGI [11]: > 100 µM
- TGI [12]: > 100 µM
- TGI [13]: > 81.4 µM
- TGI [14]: > 100 µM
- TGI [15]: > 100 µM
- TGI [16]: > 100 µM
- TGI [17]: > 100 µM
- TGI [18]: > 100 µM
- TGI [19]: > 100 µM
- TGI [20]: 98.7 µM
- TGI [21]: > 100 µM
- TGI [22]: > 100 µM
- TGI [23]: > 100 µM
- TGI [24]: > 100 µM
- TGI [25]: > 63.8 µM
- TGI [26]: > 100 µM
- TGI [27]: > 100 µM
- TGI [28]: > 100 µM
- TGI [29]: > 62 µM
- TGI [30]: > 100 µM
- TGI [31]: > 100 µM
- TGI [32]: > 70.3 µM
- TGI [33]: > 100 µM
- TGI [34]: > 100 µM
- TGI [35]: > 100 µM
- TGI [36]: > 100 µM
- TGI [37]: > 100 µM
- TGI [38]: > 100 µM
- TGI [39]: > 60.1 µM
- TGI [40]: > 100 µM
- TGI [41]: > 100 µM
- TGI [42]: > 100 µM
- TGI [43]: > 60.5 µM
- TGI [44]: > 100 µM
- TGI [45]: > 100 µM
- TGI [46]: > 100 µM
- TGI [47]: > 100 µM
- TGI [48]: > 100 µM
- TGI [49]: > 31.6 µM
- TGI [50]: > 100 µM
- TGI [51]: > 100 µM
- TGI [52]: > 100 µM
- TGI [53]: > 100 µM
- TGI [54]: > 100 µM
- TGI [55]: > 100 µM
- TGI [56]: > 100 µM
- TGI [57]: > 100 µM
- TGI [58]: > 100 µM

Compound: CC(=O)NC(CCCNCc1ccccc1)C(=O)NCc1ccccc1 (stereo not drawn)
- TGI [2]: > 100 µM
- TGI [3]: > 100 µM
- TGI [4]: > 100 µM
- TGI [5]: > 100 µM
- TGI [6]: > 100 µM
- TGI [7]: > 100 µM
- TGI [8]: > 100 µM
- TGI [9]: > 100 µM
- TGI [10]: > 100 µM
- TGI [11]: > 100 µM
- TGI [12]: > 100 µM
- TGI [13]: > 100 µM
- TGI [14]: > 100 µM
- TGI [15]: > 100 µM
- TGI [16]: > 100 µM
- TGI [17]: > 100 µM
- TGI [18]: > 100 µM
- TGI [19]: > 100 µM
- TGI [20]: > 100 µM
- TGI [21]: > 100 µM
- TGI [22]: > 100 µM
- TGI [23]: > 100 µM
- TGI [24]: > 100 µM
- TGI [25]: > 100 µM
- TGI [26]: > 100 µM
- TGI [27]: > 100 µM
- TGI [28]: > 100 µM
- TGI [29]: > 100 µM
- TGI [30]: > 100 µM
- TGI [31]: > 100 µM
- TGI [32]: > 100 µM
- TGI [33]: > 100 µM
- TGI [34]: > 100 µM
- TGI [35]: > 100 µM
- TGI [36]: > 100 µM
- TGI [37]: > 100 µM
- TGI [38]: > 100 µM
- TGI [59]: > 100 µM
- TGI [40]: > 100 µM
- TGI [41]: > 100 µM
- TGI [42]: > 100 µM
- TGI [43]: > 100 µM
- TGI [45]: > 100 µM
- TGI [46]: > 100 µM
- TGI [47]: > 100 µM
- TGI [48]: > 100 µM
- TGI [49]: > 100 µM
- TGI [50]: > 100 µM
- TGI [51]: > 100 µM
- TGI [52]: > 100 µM
- TGI [53]: > 100 µM
- TGI [54]: > 100 µM
- TGI [55]: > 100 µM
- TGI [56]: > 100 µM
- TGI [57]: > 100 µM
- TGI [58]: > 100 µM

Compound: CC1=NOC(=O)/C1=C/c1ccccc1O
- TGI [1]: > 100 µM
- TGI [2]: > 100 µM
- TGI [3]: > 100 µM
- TGI [4]: > 100 µM
- TGI [5]: > 100 µM
- TGI [6]: 73.9 µM
- TGI [7]: > 100 µM
- TGI [8]: > 100 µM
- TGI [9]: > 100 µM
- TGI [10]: > 100 µM
- TGI [11]: > 100 µM
- TGI [12]: > 100 µM
- TGI [14]: > 100 µM
- TGI [15]: > 100 µM
- TGI [16]: > 100 µM
- TGI [17]: > 100 µM
- TGI [18]: > 100 µM
- TGI [19]: > 100 µM
- TGI [20]: > 100 µM
- TGI [21]: > 100 µM
- TGI [22]: > 100 µM
- TGI [23]: > 100 µM
- TGI [24]: > 100 µM
- TGI [25]: > 100 µM
- TGI [26]: > 100 µM
- TGI [27]: > 100 µM
- TGI [28]: > 100 µM
- TGI [29]: > 100 µM
- TGI [30]: > 100 µM
- TGI [31]: > 100 µM
- TGI [32]: > 100 µM
- TGI [33]: > 100 µM
- TGI [34]: > 100 µM
- TGI [35]: > 100 µM
- TGI [36]: > 100 µM
- TGI [37]: > 100 µM
- TGI [38]: > 100 µM
- TGI [39]: > 100 µM
- TGI [40]: > 100 µM
- TGI [41]: > 100 µM
- TGI [43]: > 100 µM
- TGI [44]: > 100 µM
- TGI [45]: > 100 µM
- TGI [46]: > 100 µM
- TGI [47]: > 100 µM
- TGI [48]: > 100 µM
- TGI [49]: > 100 µM
- TGI [50]: > 100 µM
- TGI [51]: > 100 µM
- TGI [52]: > 100 µM
- TGI [53]: > 100 µM
- TGI [54]: > 100 µM
- TGI [55]: > 100 µM
- TGI [56]: > 100 µM
- TGI [57]: > 100 µM
- TGI [58]: > 100 µM
